Test results as given in US7740867B2, “Method for identification of virulence determinants” (priority 2000, dated 2010).

Key:
[1] = test system: M. paratuberculosis strain K-10; assay: Susceptibility of growing and non-growing M. paratuberculosis in broth culture to antimicrobial agents; format: cell-based, Mycobacterium paratuberculosis
Procedure: Antimicrobial agents (antibiotics) tested were the fluoroquinolone Bay y 3118, and D-cycloserine. The aminoglycoside amikacin which kills both growing and non-growing M. paratuberculosis, was included as a control. M. paratuberculosis strain K-10 was grown in complete Middlebrook 7H9 medium containing mycobactin J as described above to an optical density (OD600) of 0.3 to 0.4. For non growing conditions, cells (200 ml) were harvested at room temperature, washed in MSS (Middlebrook 7H9 salt solution: 1.0 g/L KH2PO4, 0.05 g/L MgSO4, NH4SO4, 2.5 g/L Na2HPO4, 0.0005 g/L CaCl2, 0.001 g/L ZnSO4, and 0.001 g/L CuSO4), and resuspended in MSS as a single-cell suspension (Williams et al., J. Clin. Microbiol., 37:304-309, 1999). Aliquots (10 ml at a cell density of 2×10^8 CFU/mL) were placed in sterile tissue culture flasks, and antibiotics were added at the following final concentrations Bay y 3118: 0.075 μg/mL (5×MIC) and 0.3 μg/mL (20×MIC); D-cyloserine: 125 μg/mL (5×MIC) and 500 μg/mL (20×MIC); amikacin: 10 μg/mL (5×MIC), and 40 μg/mL (20×MC). These cultures and a control without antibiotics (0×) were incubated at 37° C. and appropriate dilutions were plated in triplicate onto complete Middlebrook 7H9 medium at various time points. […] For growing conditions, cells were treated as described except that the growth control (0×) was diluted 1:10 and all cells were washed and resuspended in complete medium instead of MSS. The cells were also inoculated into MSS (no-growth control).

[2] = test system: M. paratuberculosis strain K-10; assay: Minimal inhibitory concentration (MIC) determination; format: cell-based, Mycobacterium paratuberculosis
Excerpt: The exact amount of the antimicrobial used will vary with the particular substance and organism in question. In general, the concentration of the antimicrobial should exceed the approximate minimal inhibitory concentration (MIC) for the particular organism being studied. Determination of MIC is routine in the art and can be accomplished by the skilled technician without undue experimentation. […] In another embodiment, the concentration of Bay y 3118 is 5× the MIC. […] In yet another embodiment, the concentration of D-cycloserine is 5× the MIC.

[3] = test system: Mycobacterium avium within human macrophages; details: reported by Bermudez et al., 1999; cited from earlier work
[4] = 5× the MIC, MSS salt solution (non growing conditions), 37° C., FIG. 3
[5] = 5× the MIC, complete Middlebrook 7H9 medium (growing conditions), 37° C., FIG. 3

Structure (SMILES)	susceptibility of bacteria in stasis compared with growing bacteria ([1]; concentration not given (5× and 20× MIC tested))	effect on growing bacteria ([1]; concentration not given (5× and 20× MIC tested), growing conditions)	effect on non growing bacteria ([1]; concentration not given (5× and 20× MIC tested), non growing conditions)	MIC [2]	effect on non growing bacteria [1, 4]	effect on growing bacteria [1, 5]	killing of growing versus non-growing Mycobacterium avium within human macrophages [3]	effect on non growing bacteria ([1]; 20× the MIC, MSS salt solution (non growing conditions), 37° C., FIG. 3)	effect on growing bacteria ([1]; 20× the MIC, complete Middlebrook 7H9 medium (growing conditions), 37° C., FIG. 3)
NCC[C@H](O)C(=O)N[C@@H]1C[C@H](N)[C@@H](O[C@H]2O[C@H](CN)[C@@H](O)[C@H](O)[C@H]2O)[C@H](O)[C@H]1O[C@H]1O[C@H](CO)[C@@H](O)[C@H](N)[C@H]1O [Amikcin, amikacin]	particularly more susceptible	bactericidal	bactericidal						
Cl.O=C(O)c1cn(C2CC2)c2c(Cl)c(N3C[C@@H]4CCCN[C@@H]4C3)c(F)cc2c1=O [Bay y 3118]				approximately 0.015 μg/mL	does not kill non growing bacteria	has a bactericidal action on growing bacteria	kill growing but not non-growing		
N[C@@H]1CONC1=O [D-cycloserine]				approximately 25 μg/mL	moderate bactericidal effect	moderate bactericidal effect		moderate bactericidal effect	moderate bactericidal effect
